Laboratory results: patent EP0591582B1, “Hexahydrobenzo (f) quinolinones as 5-alpha-reductase inhibitors” (ELI LILLY AND COMPANY, priority 1992, dated 1994)

Molecular target: T1, 5α-reductase (Homo sapiens, UniProt P18405)
T1 construct: host or cells: Hs68 human genital skin fibroblasts
T1 sequence (P18405 1-259): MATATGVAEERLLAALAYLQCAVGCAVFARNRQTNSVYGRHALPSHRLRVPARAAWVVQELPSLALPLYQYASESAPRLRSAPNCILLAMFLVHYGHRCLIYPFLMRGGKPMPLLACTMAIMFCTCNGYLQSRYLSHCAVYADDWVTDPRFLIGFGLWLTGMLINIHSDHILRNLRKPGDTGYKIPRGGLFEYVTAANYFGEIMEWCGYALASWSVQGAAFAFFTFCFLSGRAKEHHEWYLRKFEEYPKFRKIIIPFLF
Assay: 5α-Reductase activity (conversion of testosterone to DHT) in Hs68 human genital skin fibroblasts, TLC of radiolabelled steroids
Assay type: cell-based
Conditions: Hs68 cells, four hours incubation, 0 equals no activity, 100 equals total inhibition; for inhibition at 316 µM: Concentration 0.316 mM; for inhibition at 10000 µM: Concentration 10.0 mM
Protocol: Cell Culture: 5α-Reductase activity was measured using Hs68 human genital skin fibroblasts which were originally purchased from the American Type Culture Collection(Rockville, MD). The cells were grown in Dulbecco's Modified Eagle's Medium (DMEM) plus 10% stripped fetal bovine serum which was supplemented with amphotericin B ([…]) and gentamicin ([…]) (GIBCO, Grand Island, NY). The serum was stripped of endogenous steroids by incubation with dextran-coated charcoal prior to its addition to the media. The cells were maintained at 37°C in an atmosphere of 95% air, 5% CO2 and were passaged every 7-10 days by exposure to a trypsin-EDTA solution (0.025% trypsin, 0.265 mM EDTA). Prior to the assay the Hs68 cells were harvested and plated in Falcon 6-well plates (Becton Dickinson Labware, Lincoln Park, NJ) at a density of 6 x 10^4 cells per well. The cells were allowed to grow for 4-5 days or until they reached approximately 80% confluence.
Assay Method I: The substrate was prepared by dissolving unlabeled testosterone (Sigma Chemical Co., St. Louis, MO) in absolute ethanol followed by the addition of [7-^3H (N)]-testosterone (23.3 Ci/mmole, New England Nuclear, Boston, MA). The steroid solution was taken to dryness under a stream of nitrogen and then reconstituted in media.
Assay Method II: The substrate used for this method was [^14C]-testosterone (50 mCi/mmol) (New England Nuclear, Boston, MA). An aliquot of the substrate was taken to dryness under a stream of nitrogen. After the addition of […] of ethanol, the testosterone was brought up in an appropriate volume of media.
Sample Preparation: The test compounds were dissolved in absolute ethanol in order to achieve the desired concentration. Subsequent dilutions of the test compounds with media were performed by the Biomek 1000 Automated Laboratory Workstation (Beckman Instruments, Palo Alto, CA). The existing media in the sample wells was aspirated and replaced with fresh media. Test compound was then added to the wells followed by the addition of 0.5 ml of the substrate. The volume of the incubation mixture was maintained at 2.0 ml. The final substrate concentration was […]. The concentration of the test compounds ranged from 0.001-15 mM. An additional three wells (background) containing media and substrate but no cells were also included to account for the non-enzymatic metabolism of the substrate. The plates were returned to the incubator and incubated for four hours.
At the end of the incubation the media was collected and transferred to an extraction tube containing 5 ml of toluene-ethanol (9:1), to which has been added […] each of unlabeled carrier steroids (estriol, estradiol, estrone, 5α-androstan-3α,17b-diol, 5α-androstan-3b,17b-diol, 4-androstene-3,17-dione, 5α-androstan-3,17-dione, testosterone, and 5α-dihydrotestosterone) (Steraloids, Inc. Wilton, NH). In the case of Assay Method I the extraction tube also contained 1,000 and 10,000 dpm of [4-^14C]-dihydrotestosterone(50-60 mCi/mmol) and [4-^14C]-testosterone (50 mCi/mmol) (New England Nuclear, Boston, MA), respectively. The [^14C]-steroids were included as recovery standards to quantify procedural losses. A small amount of NaCl was also added to the extraction tubes to prevent foaming. The samples were vortexed for approximately 30 seconds and then centrifuged for 10 minutes at 500 x g. The organic phase was collected and the samples taken to dryness, redissolved in dichloromethane-methanol (9:1) and were analyzed by thin layer chromatography using one of the methods described below.
Chromatography Method I (two-dimensional): The extracted samples were appled to silica gel 60F254, 0.25 mm thick, thin layer chromatography plates (EM Science, Cincinnati, OH). The plates were developed in the first dimension with a solvent system containing dichloromethaneethyl acetate-methanol-acetic acid (160:38:1.5:0.5, Mallinckrodt Inc., Paris, KY). […]

| Compound | inhibition at 10000 µM | also measured |
| --- | --- | --- |
| O=C1CCC2=C(CCc3cc(Br)ccc32)N1 [Example 1, 8-bromo-1,2,3,4,5,6-hexahydrobenzo[f]quinolin-3-one] |  | inhibition at 316 µM: 73% |
| CC(C)(C)c1ccc2c(c1)CCC1=C2CCC(=O)N1 [Example 15, 8-t-butyl-1,2,3,4,5,6-hexahydrobenzo[f]quinolin-3-one] |  | inhibition at 3160 µM (Concentration 3.16 mM): 30% |
| CN1C(=O)CCC2=C1CCc1cc(Br)ccc12 [Example 2, 8-bromo-4-methyl-1,2,3,4,5,6-hexahydrobenzo-[f]quinolin-3-one] | 98% |  |
| CN1C(=O)CCC2=C1CCc1cc(F)ccc12 [Example 6, 8-fluoro-4-methyl-1,2,3,4,5,6-hexahydrobenzo[f]quinolin-3-one] | 81% |  |
| Cc1ccc2c(c1)CCC1=C2CCC(=O)N1C [Example 5, 4,8-dimethyl-1,2,3,4,5,6-hexahydrobenzo[f]quinolin-3-one] | 100% |  |
| CC1(C)CC2=C(CCC(=O)N2)c2ccc(Br)cc21 [Example 14, 8-bromo-6,6-dimethyl-1,2,3,4,5,6-hexahydrobenzo[f]quinolin-3-one] |  | inhibition at 316 µM: 30% |
| O=C1CCC2=C(CCc3cc(Cl)c(Cl)cc32)N1 [Example 3, 8,9-dichloro-1,2,3,4,5,6-hexahydrobenzo[f]quinolin-3-one] |  | inhibition at 316 µM: 85% |
| CN1C(=O)CCC2=C1CCc1cc(Cl)ccc12 [Example 4, 8-chloro-4-methyl-1,2,3,4,5,6-hexahydrobenzo[f]quinolin-3-one] | 91% |  |
| O=C1CCC2=C(CCc3cccc(F)c32)N1 [Example 20, 10-fluoro-1,2,3,4,5,6-hexahydrobenzo[f]quinolin-3-one] |  | % Inhibition (Concentration 1.0 (1.00) mM): 22% |

Second part, led by results:

| inhibition at 10000 µM | Compound | also measured |
| --- | --- | --- |
| 76% | O=C1CCC2=C(CCc3cc(F)ccc32)N1 [Example 9, 8-fluoro-1,2,3,4,5,6-hexahydrobenzo[f]quinolin-3-one] |  |
| 100% | Cc1ccc2c(c1)CCC1=C2CCC(=O)N1 [Example 13, 8-methyl-1,2,3,4,5,6-hexahydrobenzo[f]quinolin-3-one] |  |
| 63% | O=C1CCC2=C(CCc3ccccc32)N1 [Example 8, 1,2,3,4,5,6-hexahydrobenzo[f]quinolin-3-one] |  |
| 56% | CCCCN1C(=O)CCC2=C1CCc1cc(F)ccc12 [Example 25, 8-fluoro-4-n-butyl-1,2,3,4,5,6-hexahydrobenzo[f]quinolin-3-one] |  |
